# Measurements as given in patent publication US20250002463A1, “NEW SALT FORMS OF AMILORIDE AND ITS DERIVATIVES FOR PHARMACEUTICAL USE” (PSOMRI Holding AB, priority 2021, published 2025).
# “And” between values parts separate entries of the source, which are not always exact repeats. Equal values may be shown once.
# Tests used:
# [1] = Polymorphism: solid forms found in salt screen by HT-XRPD; assay type: physicochemical; conditions: Example 1 salt screen in MeOH, DME, THF
# Description: (§1) The precipitated solids were analyzed by high throughput X-ray powder diffractometry (HT XRPD). Liquid phases (both solutions and mother liquors) were evaporated at ambient conditions and the residual solids were analyzed by HT XRPD.
# The salt screen experiments were carried out in methanol (MeOH), 1,2-dimethoxyethane (DME) and tetrahydrofuran (THF).
# [2] = Aqueous solubility of salts, Example 1 (aliquot addition; HPLC after 24 h at RT; pH of solutions/mother liquors)
# Description: The aqueous solubility of the salts was estimated qualitatively by the solvent aliquot addition method. Aliquots of water up to 500-600 μL were added to approximately 5 mg of salt. The solubility of the free base was also estimated.
# The suspensions were let equilibrating at room temperature for 24 h. Afterwards, solids were separated from the liquid phases. The liquid phases were filtered and analyzed by HPLC to determine the solubility. The pH of solutions/mother liquors was also measured.
# Suspensions of the two salts were prepared in water with a concentration of 9-10 mg/mL. The mixtures were let equilibrating at RT for 24 h. Afterwards, solids were separated from the liquid phases. The liquid phases were filtered and analyzed by HPLC to determine the solubility. The pH of mother liquors was also measured.
# [3] = Hygroscopicity by Dynamic Vapor Sorption (DVS); assay type: physicochemical; conditions: for water vapour uptake: 25° C./80% RH, first adsorption cycle; for classification of hygroscopic behaviour: based on water vapour uptake at 25° C./80% RH
# Description: The hygroscopic behaviour of the salts was evaluated through Dynamic Vapor Sorption (DVS) measurements with an RH profile 40-95-0-40% at 25° C. and a dm/dt of 0.002. The classification of the hygroscopic behaviour is based on the water vapour uptake at 25° C./80% RH in first adsorption cycle of sorption isotherm.
# [4] = Physical stability under Accelerated Aging Conditions (AAC, 40° C./75% RH, 2 days), HT-XRPD; conditions: for Physically stable after AAC: Example 1; for Physical Stability: AAC 40° C./75% RH, 2 days, re-analyzed by HT-XRPD
# [5] = Crystallinity of salt forms by HT-XRPD; assay type: physicochemical; conditions: salt screen solid forms
# Description: as §1
# XRPD patterns were obtained using the Ardena T2 high-throughput XRPD set-up. The plates were mounted on a Bruker General Area Detector Diffraction System (GADDS) equipped with a VÅNTEC-500 gas area detector corrected for intensity and geometric variations. The calibration of the measurement accuracy (peaks position) was performed using NIST SRM1976 standard (Corundum).
# No background subtraction or curve smoothing was applied to the XRPD patterns.
# [6] = Aqueous solubility at RT, Example 2 (water aliquot addition up to 1600 μL); assay type: physicochemical; conditions: for dissolution in water: water aliquots up to 1600 μL; for dissolution in water after heating: suspension in 1600 μL water heated to 50° C. for 15 min
# Description: Aqueous solubility was determined for the anhydrous and hydrated salt forms, as well as for the salts found after the stability study. Aliquots of water were added to the solid salts until dissolution occurred or 1600 μL of water was added. The lactate salt was taken along in the solubility studies as a reference. […] The results (in mg/mL free base dissolved for better comparison between salt forms) of the solubility determination performed in water are reported in Table 9.
# Upon completion of the solubility determination, the remaining solids were separated from the liquid phases and allowed to air dry. Dried solids were analyzed by HT-XRPD.
# [7] = Intrinsic dissolution rate (rotating disc, μDiss) in water and FaSSIF; assay type: physicochemical; conditions: for IDR (mg/cm^2/min) Individual: single disc
# Description: Rotating disc intrinsic dissolution determinations were performed with a μDiss apparatus (Pion, USA) equipped with 6 independent glass fiber probes each connected to a diode area. Before the start of the experiment the probes were calibrated using the spectrum of a Mercury 362 nm pen-ray lamp. Discs were prepared in a passivated aluminum dye with a mini-IDR press (Heath Scientific, UK).
# Six dilutions of benzamil lactate salt were prepared in the dissolution media in the range from 0 to 0.5 mg/mL, and the solutions were stirred with a cross-shaped magnetic stirrer. These dilutions were used for the calibration curve which is used for the calculation of the amount of benzamil in solution. Moreover, the solutions were used to select the wavelength at which the samples were to be measured and to select the proper path length.
# The dyes were placed in their Teflon holder magnet stirrer and placed into 20 mL glass vials. Before to the sample measurement, a blank of each media was taken in the respective channel. The experiment started by the gentle addition of the pre-warmed dissolution media. Vials were incubated at 37° C. under continuous stirring at 100 rpm for a maximum of 4 h. UV absorption was measured with the in-line probes at regular intervals. Upon completion of the experiment the pH of the solution was determined. Concentrations of API in solution were calculated with use of the calibration curve and plotted against time. Dissolution rates were calculated over the linear parts of the curves. All dissolution rate experiments were done in triplicate except for TFA1 which were done in duplicate due to the lack of material.
# [8] = Physio-chemical stability study, open container 25° C./60% RH and 40° C./75% RH (UPLC, TGMS, HT-XRPD); assay type: physicochemical; conditions: for UPLC 1 week / UPLC 3 weeks / UPLC 3 days: chemical purity
# Description: Open container at 25° C. and 60% RH • 2. Open container at 40° C. and 75% RH
# [9] = Kinetic and thermodynamic solubility in water at 37° C. (1 h and 18 h, UPLC)
# [10] = Example 2, 40° C./75% RH for 2 days
# [11] = open container 25° C. and 60% RH
# [12] = open container 40° C. and 75% RH
# [13] = water, 37° C., 30 mg/ml suspension
smiles,measurement,setting,value
CC(=O)O.NC(=NC(=O)c1nc(Cl)c(N)nc1N)NCc1ccccc1 [ACA1],Polymorphism,[1],Yes
same,Water solubility,"[2]; Example 1, RT, aliquot addition (ranges) or HPLC after 24 h, not in Table 3",15 to 19 mg/mL
same,water vapour uptake,[3],0.1%
same,classification of hygroscopic behaviour,[3],non hygroscopic
same,Physically stable after AAC,[4]; 40° C./75% RH for 2 days,physically stable and Yes
N=C(NCc1ccccc1)NC(=O)c1nc(Cl)c(N)nc1N.O=C(O)c1ccccc1 [BNZ1],Polymorphism,[1],Yes
same,water vapour uptake,[3],0.1%
same,classification of hygroscopic behaviour,[3],non hygroscopic
same,Physically stable after AAC,[4]; 40° C./75% RH for 2 days,physically stable and Yes
N=C(NCc1ccccc1)NC(=O)c1nc(Cl)c(N)nc1N.O=C(O)c1ccccc1 [BNZ2],Polymorphism,[1],Yes
same,classification of hygroscopic behaviour,[3],slightly hygroscopic
same,Physically stable after AAC,[4]; 40° C./75% RH for 2 days,physically stable and Yes
CCCC(=O)O.NC(=NC(=O)c1nc(Cl)c(N)nc1N)NCc1ccccc1 [BUT1],Crystallinity,[5],Good
same,dissolution in water,[6]; RT,Full dissolution
same,Physical Stability,[4],Stable
same,physical stability upon exposure to AAC,[4]; [10],physically stable
NC(=NC(=O)c1nc(Cl)c(N)nc1N)NCc1ccccc1.O=CO [FOR3],Crystallinity,[5],Good
same,dissolution in water after heating,[6],dissolved
Br.N=C(NCc1ccccc1)NC(=O)c1nc(Cl)c(N)nc1N [HBR1],Crystallinity,[5],Moderate
same,dissolution in water after heating,[6],dissolved
same,Physical Stability,[4],Stable
same,physical stability upon exposure to AAC,[4]; [10],physically stable
NC(=NC(=O)c1nc(Cl)c(N)nc1N)NCc1ccccc1.O=C(O)CC(=O)O [MAO1],Crystallinity,[5],Good
same,dissolution in water after heating,[6],dissolved
same,Physical Stability,[4],Stable
same,physical stability upon exposure to AAC,[4]; [10],physically stable
CS(=O)(=O)O.NC(=NC(=O)c1nc(Cl)c(N)nc1N)NCc1ccccc1 [MES1],Crystallinity,[5],Good
same,aqueous solubility compared with starting material (LAC1),[6]; RT,better solubility value than the starting material (LAC1)
same,behaviour after full dissolution in water,[6]; RT,precipitation was observed after full dissolution
same,dissolution in water,[6]; RT,Full dissolution
same,behaviour in repeated aqueous solubility determination,"[6]; aiming for 50 mg/ml, RT",quickly dissolved at RT and after 15 min it crashed out again as a white solid
same,Physical Stability,[4],Stable
same,physical stability upon exposure to AAC,[4]; [10],physically stable
Cl.NC(=NC(=O)c1nc(Cl)c(N)nc1N)NCc1ccccc1 [Mono-HCl (ref)],Concentration FB,[2],2400 to 3000 µg/mL
NC(=NC(=O)c1nc(Cl)c(N)nc1N)NCc1ccccc1.O=[N+]([O-])O [NIT5],Polymorphism,[1],Yes
same,classification of hygroscopic behaviour,[3],slightly hygroscopic
NC(=NC(=O)c1nc(Cl)c(N)nc1N)NCc1ccccc1.O=P(O)(O)O [PHO2],Polymorphism,[1],Yes
same,classification of hygroscopic behaviour,[3],slightly hygroscopic
same,Physically stable after AAC,[4]; 40° C./75% RH for 2 days,physically stable and Yes
CCC(=O)O.NC(=NC(=O)c1nc(Cl)c(N)nc1N)NCc1ccccc1 [PRO2],Crystallinity,[5],Moderate
same,dissolution in water after heating,[6],dissolved
NC(=NCc1ccccc1)NC(=O)c1nc(Cl)c(N)nc1N.O=C(O)C(F)(F)F [TFA2],IDR (mg/cm^2/min) Average,"[7]; FaSSIF, 37° C., 100 rpm",0.14 ± 0.004 mg/cm^2/min
same,IDR (mg/cm^2/min) Individual,"[7]; FaSSIF, 37° C., 100 rpm",0.145 mg/cm^2/min and 0.143 mg/cm^2/min and 0.138 mg/cm^2/min
same,IDR (mg/cm^2/min) Average,"[7]; Water, 37° C., 100 rpm",0.13 ± 0.1 mg/cm^2/min
same,IDR (mg/cm^2/min) Individual,"[7]; Water, 37° C., 100 rpm",0.116 mg/cm^2/min and 0.143 mg/cm^2/min and 0.130 mg/cm^2/min
same,state of tablet,"[7]; after about 4 h, 37° C.",still not completely dissolved
same,IDR difference to LAC1,[7]; in FaSSIF,about 4 fold
same,Intrinsic Dissolution Rate (IDR),"[7]; water, 37° C., 100 rpm, linear part (LAC1 1 to 36 min; TFA 10-100 min)",0.13±0.01 mg/cm^2/min
same,UPLC t0,[8]; chemical purity at start of stability study,99.1% and 100%
same,UPLC 1 week,[8]; [11],99.9% and 100%
same,UPLC 3 weeks,[8]; [11],100%
same,UPLC 3 days,[8]; [11],99.9% and 100%
same,UPLC 1 week,[8]; [12],100%
same,UPLC 3 weeks,[8]; [12],100%
same,UPLC 3 days,[8]; [12],99.9% and 100%
same,physical and chemical stability,[8]; incubation for 3 weeks at 25° C./60% RH and 40° C./75% RH,physically and chemically stable
same,TGMS 1 week,[8]; [11],0.1% water and <0.1 % water
same,XRPD 1 week,[8]; [11],TFA2 and TFA1
same,TGMS 3 weeks,[8]; [11],<0.1% water
same,XRPD 3 weeks,[8]; [11],TFA2
same,XRPD 3 days,[8]; [11],TFA2 and TFA1
same,TGMS 1 week,[8]; [12],0.1% water and <0.1 % water
same,XRPD 1 week,[8]; [12],TFA2 and TFA1
same,TGMS 3 weeks,[8]; [12],<0.1% water
same,XRPD 3 weeks,[8]; [12],TFA2
same,XRPD 3 days,[8]; [12],TFA2 and TFA1
same,XRPD t0,[8]; start of stability study,TFA2 and TFA1
same,XRPD 1 h Amb.,"[9]; residual solid after 1 h in water at 37° C., ambient-dried",TFA2
same,XRPD 1 h Vac.,"[9]; residual solid after 1 h in water at 37° C., vacuum-dried",TFA2
same,XRPD 18 h Amb.,"[9]; residual solid after 18 h in water at 37° C., ambient-dried",TFA2
same,XRPD 18 h Vac.,"[9]; residual solid after 18 h in water at 37° C., vacuum-dried",TFA2
same,pH after 10 min,[9]; [13],6.0
same,pH after 1 h,[9]; [13],6.2
same,Solubility (mg/mL) 1 h,"[9]; water, 37° C., 1 h (kinetic), UPLC",2.6 mg/mL
same,Solubility (mg/mL) 18 h,"[9]; water, 37° C., 18 h (thermodynamic), UPLC",1.6 mg/mL
same,Physically stable?,"[4]; AAC, 2 days at 40° C. and 75% RH, solids from thermocycling",Yes
same,physical stability upon exposure to AAC,"[4]; Example 3 thermocycling solids, 2 days at 40° C. and 75% RH",physically stable
Cc1ccc(S(=O)(=O)O)cc1.NC(=NC(=O)c1nc(Cl)c(N)nc1N)NCc1ccccc1 [TOS1],Polymorphism,[1],Unclear
same,classification of hygroscopic behaviour,[3],slightly hygroscopic
same,Physically stable after AAC,[4]; 40° C./75% RH for 2 days,physically stable and Yes
